Measurements: PMC12371487, “Phenylalkyl Acetophenones and Anacardic Acids from Knema oblongifolia with Synthetic Analogues as Anti-infectives and Antibacterial Agents” (ACS Bio & Med Chem Au, 2025)
In brackets after ≈: the same amount, converted by molar mass. Several values for one entry are separate records, joined by “and”; a condition that tells them apart may be missing. Equal values may be shown once. Read-outs that look alike come from different tables or passages of the source.

Tests used:
Format in all cases: cell-based
[1] = tested on: Mycobacterium marinum (Mm) in infection of Dictyostelium discoideum; assay: Dd-Mm infection assay: intracellular Mm growth (luminescence); conditions: Mm inside Dd, luminescence AUC over 72 h at 25 °C; 6-concentration curve, top 100 μM, 1:3 steps; IC50 interpolated
Experimental: (§1) Plant extracts, fractions, or isolated compounds were stored at −20 °C and wrapped in aluminum foil if necessary. All manipulations with extracts, fractions, or compounds were performed under a sterile hood. Extracts, fractions, and compounds were resuspended throughout in DMSO to best solubilize extracts with diverse constituents. Extracts, fractions, or compounds were added to the assay plate in a 1:100 dilution. Assay solutions of extracts, fractions, and compounds were prepared in 96-well plates, stored at −20 °C, and thawed before the experiment at room temperature or warmer with or without shaking/vortexing to obtain a clear assay solution. Extracts were tested at 25 μg/mL and purified compounds in a dose–response curve of 6 concentrations with 100 μM being the top concentration and a 1:3 dilution step between each testing concentration. Since fractions were not weighed individually, the injection mass was used to calculate an average mass per fraction and thus a nominal mass concentration. Fractions were tested at a nominal concentration of 10 μg/mL.
(§2) As described in Nitschke et al. and Mottet et al., Dd Ax2(ka) expressing mCherry from the act5 chromosomal locus was infected with Mm M strain expressing the lux operon (luxCDABE) , by spinoculation.
(§3) Briefly, the day before the experiment, Mm was cultivated in 7H9 broth (Becton Dickinson, Difco Middlebrook 7H9) supplemented with 10% OADC (Becton Dickinson) and 0.05% tyloxapol (Sigma-Aldrich) and 50 μg/mL kanamycin at 32 °C overnight with continuous shaking. Additionally, the day before the experiment, 10^7 amoebae were plated in HL5-C in a 10 cm Petri dish (Falcon). On the day of the experiment, a volume of the Mm culture corresponding to a multiplicity of infection of 25 with respect to the number of amoebae in the Petri dish was added to the semiconfluent amoebae monolayer. Subsequently, the Petri dishes were centrifuged twice at 500g, as described in Mottet et al. To remove extracellular bacteria, dishes were rinsed with fresh HL5-C, and the infected cell population was resuspended in HL5-C with 5 U/mL penicillin and 5 μg/mL streptomycin (Gibco) to inhibit the extracellular growth of bacteria during the course of the experiment.
(§4) For testing fractions and purified compounds, 20 μL of infected cell suspension was plated into each well of a 384-well plate (Interchim FP-BA8240) to an effective cell number of 1 × 10^4 cells per well. Fractions or compounds including a vehicle control (0.3% DMSO final concentration) and a positive control (rifabutin, 10 μM final concentration) were added using an electronic multipipette (Sartorius). Subsequently, the well plates were sealed with a gas impermeable membrane (H769.1, Carl Roth), briefly centrifuged, and intracellular bacterial growth was monitored using an Agilent BioTek H1 plate reader and an Agilent BioTek BioStack plate stacker by recording luminescence over 72 h at 25 °C with readings taken every hour. Fluorescence was also recorded to monitor amoeba growth.
(§5) For both assays, growth curves were obtained by measuring the luminescence and fluorescence as a proxy for bacterial growth and host growth, respectively, for 72 h with time-points taken every hour. The “normalized residual growth” was computed by calculating the area under the curve (AUC, trapezoid method) and normalizing it to the vehicle control (0.3% DMSO, set at 1) and a baseline curve (set at 0). The baseline curve was calculated by taking the median of the first measurement of all wells in a plate and extrapolating it over the complete time course. The threshold for hit detection was arbitrarily fixed at a cutoff of normalized residual growth ≤0.5. Normalized values were averaged over technical and biological replicates (all experiments on isolated compounds have at least n = 3 and N = 3, whereas the primary extract screening and microfractions testing had values of n = 1 and N = 3). […]

[2] = tested on: Mycobacterium marinum (Mm) in broth; assay: Mm growth in broth (antibiotic assay, luminescence); conditions: 72 h; for IC50: read-out: IC50 on Mm in broth
Experimental: as §1, with “Extracts, fractions, and compounds were resuspended throughout in DMSO to best solubilize extracts with diverse constituents.” left out
For testing bacteria in broth, the preculture was diluted to a bacterial density of 3.75 × 10^5 bacteria per mL in 7H9 medium. Plating bacteria and compounds or fractions was performed analogously to the infection assay described above. Bacteria growth was monitored with the Agilent BioTek H1 plate reader by recording luminescence at 32 °C.
For both assays, growth curves were obtained by measuring the luminescence and fluorescence as a proxy for bacterial growth and host growth, respectively, for 72 h with time-points taken every hour. The “normalized residual growth” was computed by calculating the area under the curve (AUC, trapezoid method) and normalizing it to the vehicle control (0.3% DMSO, set at 1) and a baseline curve (set at 0). The baseline curve was calculated by taking the median of the first measurement of all wells in a plate and extrapolating it over the complete time course. The threshold for hit detection was arbitrarily fixed at a cutoff of normalized residual growth ≤0.5.
This procedure was also applied to screening extracts with slight modifications. The day before the experiment we preplated 10 μL of HL5-C using a dispenser (Thermo Multidrop), subsequently we preplated 2.2 μL of dissolved extracts from 96-well plates into quadrants 1, 2, and 3 of 384-well plates, whereas quadrant 4 was used for positive and vehicle controls. Preplating of extracts was performed using a liquid handler (Agilent Bravo). In total, 24 extract plates were distributed in triplicate into […] 384-well plates, amounting to 24 assay plates. The prepared plates were sealed and stored at 4 °C overnight. On the day of the experiment, nine 10 cm Petri dishes were infected (as described before) and grouped into three pools. The cell suspension was adjusted to 10^6 cells/mL, and 10 μL was plated into the 24 assay plates, resulting in 10^4 cells per well, as used for conventional infection experiments. Plates were sealed and placed in the plate stacker that supplied the plate reader. The same procedure was used to screen the same extracts on Mm in a broth. For both assays, the first time points and a time point after 72 h were recorded. Subsequently, we normalized the end point, first with the median of the full assay plate at the first time point and second with the end point of the vehicle controls in the respective assay plate.
For IC50 estimation, we used a rudimentary approach of interpolating the sample concentration between the two normalized residual growth values, which were closest to a value of 0.5.

[3] = tested on: Dictyostelium discoideum (Dd) in infection; assay: Dd-Mm infection assay: host amoeba growth (fluorescence); conditions: infected Dd, fluorescence AUC over 72 h at 25 °C, 6-concentration curve, top 100 μM, 1:3 steps, IC50 interpolated
Experimental: as §1, §2, §3, §4, §5

[4] = tested on: Staphylococcus aureus (Sa) Newman strain; assay: MIC determination in Mueller-Hinton broth (CLSI) on Sa; conditions: for MIC: Staphylococcus aureus, NEWMAN, read-out: MIC on Sa
Experimental: MICs were determined in Mueller–Hinton (MH) broth according to CLSI guidelines and were repeated at least on three different occasions.
The Newman strain ofS. aureus and the UCBPP-PA14 strain ofP. aeruginosa were used in this study.

[5] = Mm in 7H9 broth, luminescence at 32 °C, IC50 interpolated

Compound: 2,4-Dihydroxychalcone [Compound 14]
- IC50 [1]: 2.47 µM
- IC50 [2, 5]: 66.7 µM
- IC50 [3]: 7.41 µM
- MIC on Sa ([4]; Mueller-Hinton broth, CLSI): 32 mg·L–1

Compound: 3,5-Dichloro-2,4-dihydroxychalcone [Compound 23]
- IC50 [1]: 1.76 µM
- IC50 [2, 5]: 47.6 µM
- IC50 [3]: 1.76 µM
- MIC on Sa ([4]; Mueller-Hinton broth, CLSI): 4 μg·mL^–1 and 4 mg·L–1

Compound: 3-Bromo-2,4-dihydroxychalcone [Compound 24]
- IC50 [1]: 2.47 µM
- IC50 on Mm in broth [2, 5]: not active
- IC50 [3]: 2.47 µM
- MIC on Sa ([4]; Mueller-Hinton broth, CLSI): 64 mg·L–1

Compound: 3-Chloro-2,4-dihydroxychalcone [Compound 21]
- IC50 [1]: 1.76 µM
- IC50 [2, 5]: 47.6 µM
- IC50 [3]: 0.59 µM
- MIC on Sa ([4]; Mueller-Hinton broth, CLSI): 32–64 mg·L–1

Compound: 5-Bromo-2,4-dihydroxychalcone [Compound 25]
- IC50 [1]: 0.82 µM
- IC50 [2, 5]: 66.7 µM
- IC50 [3]: 0.82 µM
- MIC on Sa ([4]; Mueller-Hinton broth, CLSI): not active

Compound: 5-Chloro-2,4-dihydroxychalcone [Compound 22]
- IC50 [1]: 1.76 µM
- IC50 [2, 5]: 47.6 µM
- IC50 [3]: 1.76 µM
- MIC on Sa ([4]; Mueller-Hinton broth, CLSI): 32 μg·mL^–1 and 32 mg·L–1

Compound: CC(=O)c1c(O)cc(O)cc1CCCCc1ccc2c(c1)OCO2 [Compound 1, Knemolone A]
- IC50 [1]: 22.2 µM
- IC50 on Mm in broth [2, 5]: Not active
- IC50 ([3]; Dictyostelium discoideum): 22.2 µM
- MIC on Sa ([4]; Mueller-Hinton broth, CLSI): Not active

Compound: CC(=O)c1c(O)cc(O)cc1CCCCc1ccccc1 [Compound 2, Knemolone B]
- IC50 [1]: 22.2 µM
- IC50 on Mm in broth [2, 5]: Not active
- IC50 ([3]; Dictyostelium discoideum): 22.2 µM
- MIC ([4]; Mueller-Hinton broth, CLSI): 32 µg/mL (≈ 113 µM)

Compound: O=C(O)c1c(O)cccc1CCCCc1ccc2c(c1)OCO2 [Compound 3, Knemolic acid A]
- IC50 [1]: 66.7 µM
- IC50 on Mm in broth [2, 5]: Not active
- IC50 ([3]; Dictyostelium discoideum): 66.7 µM
- MIC ([4]; Mueller-Hinton broth, CLSI): 8 µg/mL (≈ 25.5 µM)

Compound: CC(=O)c1c(O)cc(O)cc1CCCCCCc1ccccc1 [Compound 4, Knemolone C]
- IC50 [1]: 22.2 µM
- IC50 on Mm in broth [2, 5]: not active
- IC50 ([3]; Dictyostelium discoideum): 22.2 µM
- MIC on Sa ([4]; Mueller-Hinton broth, CLSI): 4 μg·mL^–1
- MIC ([4]; Mueller-Hinton broth, CLSI): 4 µg/mL (≈ 12.8 µM)

Compound: CCCCCCCCCc1cc(O)cc(O)c1C(C)=O [Compound 5, Knemolone D]
- IC50 on Mm in infection [1]: Not active
- IC50 on Mm in broth [2, 5]: Not active
- IC50 ([3]; Dictyostelium discoideum): 22.2 µM
- MIC ([4]; Mueller-Hinton broth, CLSI): 2 µg/mL (≈ 7.18 µM)

Compound: O=C(O)c1c(O)cccc1CCCCCCc1ccc2c(c1)OCO2 [Compound 6, Knemolic acid B]
- IC50 [1]: 7.41 µM
- IC50 on Mm in broth [2, 5]: Not active
- IC50 ([3]; Dictyostelium discoideum): 7.41 µM
- MIC ([4]; Mueller-Hinton broth, CLSI): 8 µg/mL (≈ 23.4 µM)

Compound: O=C(O)c1c(O)cccc1CCCCCCc1ccccc1 [Compound 7, Knemolic acid C]
- IC50 [1]: 7.41 µM
- IC50 on Mm in broth [2, 5]: not active
- IC50 ([3]; Dictyostelium discoideum): 7.41 µM
- MIC ([4]; Mueller-Hinton broth, CLSI): 8 µg/mL (≈ 26.8 µM)

Compound: CCCCCCCCCc1cccc(O)c1C(=O)O [Compound 8, Khookerianic acid A]
- IC50 [1]: 2.47 µM
- IC50 on Mm in broth [2, 5]: not active
- IC50 ([3]; Dictyostelium discoideum): 2.47 µM
- MIC ([4]; Mueller-Hinton broth, CLSI): 8 µg/mL (≈ 30.3 µM)

Compound: O=C(O)c1c(O)cccc1CCCCCCCCc1ccc2c(c1)OCO2 [Compound 9, Kneglobularic acid B]
- IC50 [1]: 7.41 µM
- IC50 on Mm in broth [2, 5]: Not active
- IC50 ([3]; Dictyostelium discoideum): 22.2 µM
- MIC ([4]; Mueller-Hinton broth, CLSI): 8 µg/mL (≈ 21.6 µM)

Compound: O=C(O)c1c(O)cccc1CCCCCCCCc1ccccc1 [Compound 10, Khookerianic acid C/Kneglobularic acid A]
- IC50 [1]: 2.47 µM
- IC50 on Mm in broth [2, 5]: Not active
- IC50 ([3]; Dictyostelium discoideum): 2.47 µM
- MIC ([4]; Mueller-Hinton broth, CLSI): 8 µg/mL (≈ 24.5 µM)

Compound: CCCCCCCCCCCc1cccc(O)c1C(=O)O [Compound 11, Anagigantic acid]
- IC50 [1]: 2.47 µM
- IC50 on Mm in broth [2, 5]: Not active
- IC50 ([3]; Dictyostelium discoideum): 2.47 µM
- MIC ([4]; Mueller-Hinton broth, CLSI): 8 µg/mL (≈ 27.4 µM)

Compound: CCCCCCCCCCCCCc1cccc(O)c1C(=O)O [Compound 12, 6-Tridecylsalicylic acid]
- IC50 [1]: 66.7 µM
- IC50 on Mm in broth [2, 5]: Not active
- IC50 ([3]; Dictyostelium discoideum): 66.7 µM
- MIC on Sa ([4]; Mueller-Hinton broth, CLSI): Not active

Compound: CC(=O)c1ccc(O)cc1O [Compound 13, 2,4-Dihydroxyacetophenone]
- IC50 [1]: 66.7 µM
- IC50 on Mm in broth [2, 5]: not active
- IC50 on Dd in infection [3]: not active
- MIC on Sa ([4]; Mueller-Hinton broth, CLSI): not active

Compound: CO[C@H]1/C=C/O[C@@]2(C)Oc3c(C)c(O)c4c(c3C2=O)C2=NC3(CCN(CC(C)C)CC3)NC2=C(NC(=O)/C(C)=C\C=C\[C@H](C)[C@H](O)[C@@H](C)[C@@H](O)[C@@H](C)[C@H](OC(C)=O)[C@@H]1C)C4=O [rifabutin, reference compound]
- IC50 [1]: 0.2 µM
- IC50 ([2]; Mycobacterium marinum): 0.03 µM
- IC50 on Dd in infection [3]: not active

Compound: CN[C@H](CC(C)C)C(=O)N[C@H]1C(=O)N[C@@H](CC(N)=O)C(=O)N[C@H]2C(=O)N[C@H]3C(=O)N[C@H](C(=O)N[C@H](C(=O)O)c4cc(O)cc(O)c4-c4cc3ccc4O)[C@H](O)c3ccc(c(Cl)c3)Oc3cc2cc(c3O[C@@H]2O[C@H](CO)[C@@H](O)[C@H](O)[C@H]2O[C@H]2C[C@](C)(N)[C@H](O)[C@H](C)O2)Oc2ccc(cc2Cl)[C@H]1O [vancomycin, reference compound]
- MIC [4]: 1 µg/mL (≈ 0.69 µM)
